Reference: patent publication US9393326B2, “Compositions and methods for multimodal imaging” (University Health Network, priority 2005, dated 2016)

Legend:
[1] = In vitro MR imaging in multimodal phantom
Description: The phantom and the vials were filled to capacity to minimize air-induced susceptibility artefacts. Scans were produced using a T1 weighted spin echo sequence with a repetition time (TR) of 400 ms, an echo time (TE) of 9 ms, a slice thickness of 3 mm, a FOV of 1 9.9×19.9 cm and an image carrier of 256×192 pixels. The relative signal intensity was taken over the ROI. Solutions of free signal modifying agents were also imaged as controls in both modalities.

[2] = In vitro relaxometry (r1, r2); type: physicochemical; conditions: 20° C., 1.5 T, versus gadolinium concentration (free iohexol: [I])
Experimental: All in vitro relaxometry measurements were performed at 20° C. on a 1.5 Tesla, 20-cm-bore superconducting magnet (Nalorac Cryogenics Corp., Martinez, Calif.) controlled by an SMIS spectroscopy console (SMIS, Surrey, UK). The T1 relaxation time data were acquired using an inversion recovery (IR) sequence (45) with 35 inversion recovery time (TI) values logarithmically spaced from 1 to 32000 ms. A 10 second delay was given between each acquisition and the next inversion pulse. […] For every measurement 2000 even echoes were sampled with 8 averages. The effects of any residual transverse magnetization following the off-resonance irradiation was removed by phase-cycling the π/2 pulse (−x/x).
The T1 relaxation data were analyzed assuming mono-exponential behaviour
[formula] where S is the signal observed, M0 is the magnetization at equilibrium, t is time and T1 is the longitudinal relaxation time). All T2 decay data were plotted to a one component T2 model with a Gaussian fit on a logarithmic time scale. The r1 and r2 values were calculated from linear regression analysis of 1/T1 and 1/T2 relaxation rates versus gadolinium concentration.

[3] = In vitro CT imaging in multimodal phantom; conditions: 120 kV, 300 mA
Experimental: In vitro contrast efficacy was determined by imaging the liposome formulated signal modifying agents at varying concentrations in both CT and MR, using a multimodal imaging phantom. To minimize the amount of agent leakage from liposomes, in vitro imaging scans were performed immediately following the removal of free agents by dialysis. […] The mean attenuation in Hounsfield units was measured using circular regions of interest (ROI). Attenuation values were then plotted against signal modifying agent concentrations using linear regression analysis.

Row | r1 ([2]; listed as iohexyl) | Compound | peak differential signal intensities with respect to water in MR ([1]; gadolinium 1 to 9 mmol/L) | r1 [2] | r2 [2] | r1 ([2]; listed as unencapsulated gadoteridol) | CT attenuation (linear regression) [3] | average differential signal intensity in MR relative to water ([1]; iodine 0 to 17 mmol/L)
1 |  | CC(O)CN1CCN(CC(=O)[O-])CCN(CC(=O)[O-])CCN(CC(=O)[O-])CC1.[Gd+3] (stereo not shown) [Free Gadoteridol, gadolinium complex of 10-(2-hydroxy-propyl)-1,4,7,10-tetraazacyclododecane-1,4,7-triacetic acid] | > 600 SI | 5.14 ± 0.06 s^−1mmol^−1L | 6.21 ± 0.08 s^−1mmol^−1L | 5.1 s^−1mmol^−1L | 11.1±0.5 HU/(mg of gadolinium) in 1 mL of HBS | 
2 | 0.0 s^−1mmol^−1L | CC(=O)N(CC(O)CO)c1c(I)c(C(=O)NCC(O)CO)c(I)c(C(=O)NCC(O)CO)c1I (stereo not shown) [Free Iohexol, iohexyl] |  | 0.00 ± 0.00 s^−1mmol^−1L | 0.01 ± 0.01 s^−1mmol^−1L |  | 29.0±0.4 HU/(mg of iodine) in 1 mL of HBS | 1.8±7.1 SI
